Laboratory results taken from EP1595878A1, “INDOLE DERIVATIVES WITH APOPTOSIS INDUCING ACTIVITY” (Zentaris GmbH, priority 2004, dated 2005).
Read-outs that look alike come from different tables or passages of the source.

Tests used:
[1] = biological target: humaner DNA-Topoisomerase II (Homo sapiens, UniProt P11388); assay: kDNA decatenation assay for topoisomerase II activity; format: biochemical; settings: compound 1 at 100, 31.6 and 10 µM; reference compounds at 100 µM
Experimental: In diesem von P. Arimondo (Anti-Cancer Drug Design 2000, 15 (6), 413-421) beschriebenen Assay wird kDNA mit humaner DNA-Topoisomerase II in Abwesenheit oder Gegenwart der Testverbindungen behandelt. Die Testung der erfindungsgemäßen Verbindung 1 erfolgte hierbei bei drei unterschiedlichen Konzentrationen (100, 31.6 und 10 µM). Zum Vergleich setzte man eine Positivkontrolle und die Referenzverbindungen m-Amsacrin (m-Amsa), Paclitaxel (Taxol) und Vincristine bei einer jeweiligen Konzentration von 100µM ein.
Zu 1µL vorgelegter Testsubstanz (20fach konzentriert in 100% DMSO) werden 2µL 10x Assay Puffer, 1µL kDNA (200ng), 0,5µL human Topoisomerase II (1unit) und 15,5µL H2O pipettiert und gemischt.
Die Reaktionsansätze werden in den auf 37°C vorgeheizten Heizblock gestellt und 10min bei 37°C inkubiert. Die Inkubation wird nach Zugabe von 4µL 5x Stop Puffer gestoppt und nachfolgend die Substanz mit CIA extrahiert. Danach werden 20µL des Überstandes auf ein 1 % Agarosegel mit 0,25µg/mL Ethidiumbromid aufgetragen und 1 h bei 100V aufgetrennt. Zum Schluss wird das Gel unter UV-Anregung fotografiert (s. Figur 1). Die Quantifizierung der Inhibierung der Decatenation von kDNA erfolgt mit der GelPro®Analyzer Software (s. Figur 2)

[2] = biological target: human Topoisomerase II (Homo sapiens, UniProt P11388); assay: pRYG relaxation assay for topoisomerase II activity; format: biochemical; settings: compound 1 at 100, 31.6 and 10 µM; reference compounds at 316 and 100 µM
Chain of human Topoisomerase II (P11388 whole entry): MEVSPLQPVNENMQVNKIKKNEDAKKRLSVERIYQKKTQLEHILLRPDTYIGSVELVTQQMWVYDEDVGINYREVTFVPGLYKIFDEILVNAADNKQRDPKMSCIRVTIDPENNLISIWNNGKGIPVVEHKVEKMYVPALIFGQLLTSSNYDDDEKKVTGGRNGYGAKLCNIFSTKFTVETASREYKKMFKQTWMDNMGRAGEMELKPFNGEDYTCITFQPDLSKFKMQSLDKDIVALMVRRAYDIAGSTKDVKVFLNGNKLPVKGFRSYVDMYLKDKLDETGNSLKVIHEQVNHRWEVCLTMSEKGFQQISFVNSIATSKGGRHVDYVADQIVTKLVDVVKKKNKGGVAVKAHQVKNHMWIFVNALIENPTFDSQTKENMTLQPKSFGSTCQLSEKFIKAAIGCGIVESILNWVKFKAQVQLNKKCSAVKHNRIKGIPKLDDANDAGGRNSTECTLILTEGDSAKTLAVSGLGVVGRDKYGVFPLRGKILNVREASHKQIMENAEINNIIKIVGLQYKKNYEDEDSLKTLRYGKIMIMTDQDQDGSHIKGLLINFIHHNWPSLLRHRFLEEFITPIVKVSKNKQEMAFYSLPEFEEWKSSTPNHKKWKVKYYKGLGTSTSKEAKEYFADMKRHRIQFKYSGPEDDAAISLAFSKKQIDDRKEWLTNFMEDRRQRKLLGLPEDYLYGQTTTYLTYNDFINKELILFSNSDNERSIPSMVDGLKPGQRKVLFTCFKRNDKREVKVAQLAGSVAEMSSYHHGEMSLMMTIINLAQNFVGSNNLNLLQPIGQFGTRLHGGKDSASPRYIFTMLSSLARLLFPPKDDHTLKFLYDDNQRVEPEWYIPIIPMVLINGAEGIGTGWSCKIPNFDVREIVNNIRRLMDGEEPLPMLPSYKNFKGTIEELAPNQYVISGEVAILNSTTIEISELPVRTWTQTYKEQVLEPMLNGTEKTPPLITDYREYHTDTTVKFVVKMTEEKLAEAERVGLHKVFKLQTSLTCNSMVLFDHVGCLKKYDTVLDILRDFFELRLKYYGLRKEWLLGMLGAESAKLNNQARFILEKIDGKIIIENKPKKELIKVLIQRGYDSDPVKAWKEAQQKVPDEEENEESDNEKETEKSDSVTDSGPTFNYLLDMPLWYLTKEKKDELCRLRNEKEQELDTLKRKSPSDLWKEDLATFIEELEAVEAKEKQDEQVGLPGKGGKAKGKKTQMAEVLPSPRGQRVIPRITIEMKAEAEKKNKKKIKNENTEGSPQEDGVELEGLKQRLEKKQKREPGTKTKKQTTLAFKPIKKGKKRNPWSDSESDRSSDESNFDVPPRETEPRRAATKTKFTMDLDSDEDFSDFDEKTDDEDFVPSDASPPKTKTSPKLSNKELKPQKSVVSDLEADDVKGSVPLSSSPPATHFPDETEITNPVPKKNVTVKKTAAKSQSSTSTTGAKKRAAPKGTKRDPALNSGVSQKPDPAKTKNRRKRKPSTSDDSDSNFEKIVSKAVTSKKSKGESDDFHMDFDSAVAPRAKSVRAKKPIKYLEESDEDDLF
Experimental: Mit diesem Relaxationsassay konnte zusätzlich die inhibitorische Eigenschaft der erfindungsgemäßen Verbindungen auf Topoisomerase II gezeigt werden. Die Testung der erfindungsgemäßen Verbindung 1 erfolgte hierbei bei drei unterschiedlichen Konzentrationen (100, 31.6 und 10 µM). Zum Vergleich setzte man die Referenzverbindungen m-Amsacrin, Paclitaxel (Taxol) und Vincristine bei Konzentrationen von 316 und 100µM ein.
Zu 1µL vorgelegter Testsubstanz (20fach konzentriert in 100% DMSO) werden 2µL 10x Assay Puffer, 0,5µL pRYG DNA (125ng), 0,5µL human Topoisomerase II (1 unit) und 16µL H2O pipettiert und gemischt. Die Reaktionsansätze werden in den auf 37°C vorgeheizten Heizblock gestellt und 30min bei 37°C inkubiert. Die Inkubation wird nach Zugabe von 4µL 5x Stop Puffer abgestoppt. Danach werden 10µL des Ansatzes auf ein 1,2% Agarosegel mit 0,25µg/mL Ethidiumbromid aufgetragen und 2,5h bei 100V aufgetrennt. Zum Schluß wird das Gel unter UV Anregung fotografiert (s. Figur 3). Die Quantifizierung der Inhibierung der pRYG Relaxation erfolgt mit der GelPro®Analyzer Software (s. Figur 4).

[3] = test system: Rindertubulin; assay: Inhibition of tubulin polymerisation in vitro; format: biochemical, Rind; settings: for Hemmwirkung auf die Polymerisation von Tubulin: verbal summary of Table 3; for EC50: cells print µM, head µg/ml, read-out: Hemmung der Tubulin-Polymerisation, EC50
Text: Die Substanzen 1, 4, 9, 11, 12, 13 und 15 wurden in einem in-vitro Test auf Hemmung der Polymerisation von Rindertubulin getestet (D.M. Bollag et al. Cancer Res. 1995, 55, 2325-2333). In diesem Test wird durch Zyklen von Polymerisation und Depolymerisation aufgereinigtes Tubulin eingesetzt, welches durch Zugabe von GTP und Erwärmung zur Polymerisation gebracht wird. In Tabelle 3 sind die EC50 Werte der Polymerisationshemmung von Tubulin mit 30% assoziierten Proteinen (MAPs) angegeben.

[4] = test system: Melanom, MEXF462; format: in vivo, Mäuse; settings: for Todesfällen: dead animals / total
Text: Die in vivo Aktivität und Verträglichkeit der erfindungsgemäßen Verbindung 2 wurde im Vergleich zu den Substanzen 10 und 14 in einem humanen Xenograft-Modell (Melanom, MEXF462) überprüft. Die Ergebnisse sind in der nachfolgenden Tabelle 6 zusammengefasst: in vivo Aktivitäten von Verbindung 2, 10 and 14 (Melanom; MEXF462) Tabelle 6: […]

[5] = test system: Mamma, MAXF857; format: in vivo, Mäuse; settings: 40 mg/kg p.o.; for Todesfällen: dead animals / total
Text: Die in vivo Aktivität und Verträglichkeit der erfindungsgemäßen Verbindung 2 wurde im Vergleich zu der Substanz 10 in einem weiteren humanen Xenograft-Modell (Mamma, MAXF857) überprüft. Die Ergebnisse werden in der nächsten Tabelle gezeigt: Effect of 2 and 10 on the Mammary Cancer MAXF857 Tabelle 7: […]

[6] = test system: humane Cervixkarzinom Zelllinie KB/HeLa (ATCC CCL17); assay: XTT proliferation assay (cytotoxicity test), KB/HeLa; format: cell-based; settings: Homo sapiens, read-out: XTT Proliferationsassay, EC50
Text: (§1) Die Substanzen 1, 2, 4, 9, 11, 12 , 13 und 15 wurden in einem Proliferationstest an etablierten Tumorzelllinien auf ihre anti-proliferative Aktivität hin untersucht (D.A. Scuderio et al. Cancer Res. 1988, 48, 4827-4833). Der verwendete Test bestimmt die zelluläre Dehydrogenase-Aktivität und ermöglicht eine Bestimmung der Zellvitalität und indirekt der Zellzahl. Bei den verwendeten Zelllinien handelt es sich um die humane Cervixkarzinom Zelllinie KB/HeLa (ATCC CCL17), die ovariale Adenokarzinomzelllinie SKOV-3 (ATCC HTB77), die humane Glioblastom Zelllinie SF-268 (NCI 503138) und die Lungenkarzinom Zelllinie NCI-H460 (NCI 503473).

[7] = test system: ovariale Adenokarzinomzelllinie SKOV-3 (ATCC HTB77); assay: XTT proliferation assay (cytotoxicity test), SKOV-3; format: cell-based; settings: Homo sapiens, SK-OV-3; SKOV3; read-out: XTT Proliferationsassay, EC50
Text: as §1

[8] = test system: humane Glioblastom Zelllinie SF-268 (NCI 503138); assay: XTT proliferation assay (cytotoxicity test), SF-268; format: cell-based; settings: Homo sapiens, read-out: XTT Proliferationsassay, EC50
Text: as §1

[9] = test system: Lungenkarzinom Zelllinie NCI-H460 (NCI 503473); assay: XTT proliferation assay (cytotoxicity test), NCI-H460; format: cell-based; settings: Homo sapiens, NCl-H460, read-out: XTT Proliferationsassay, EC50
Text: as §1

[10] = test system: KB/HeLa Zellen; assay: Cell cycle analysis (G2/M arrest); format: cell-based; settings: Homo sapiens, HeLa, 24 h, read-out: EC50 in nM (50% cells in G2/M)
Text: Der Zellzyklus umfasst die Entwicklung der Zelle von einer Zellgeneration zur nächsten.
Während der Ruhephase (G0) und präsynthetischen Phase (G1) besitzt die Zelle einen diploiden Chromosomensatz (2c). In der Synthesephase (S) wird die DNA-Menge durch Replikation vermehrt. Die S-Phase endet mit Erreichen der prämitotischen Phase (G2M), in der die Zelle einen reduplizierten Chromosomenbestand (4c) und verdoppelten DNA-Gehalt aufweist. In der nachfolgenden, kurzdauernden Mitosephase (M) kommt es zur gleichmäßigen Aufteilung der reduplizierten Chromosomen auf zwei Tochterzellen, die dann jeweils wieder einen diploiden DNA Gehalt zeigen und sich in der G01-Phase befinden, so daß der Zellzyklus neu beginnen kann.
Für die Zellzyklusanalyse wurden KB/HeLa Zellen mit den Testsubstanzen in unterschiedlichen Konzentrationen (0.1-1000 nM) 24 Stunden bei 37°C behandelt.
Der prozentuale Anteil der in der G2/M Phase des Zellzyklus arrettierten Zellen nach Behandlung mit Referenz- oder ausgewählten Testsubstanzen ist in der nachfolgenden Tabelle 4 dargestellt. Die Ergebnisse wurden mit einer speziellen Analysesoftware (ModFit™) ausgewertet.

[11] = tubulin with 30% associated proteins (MAPs)

Chain of humaner DNA-Topoisomerase II (P11388 whole entry): as above

`CC(=O)O[C@H]1C(=O)[C@@]2(C)[C@H]([C@H](OC(=O)c3ccccc3)[C@]3(O)C[C@H](OC(=O)[C@H](O)[C@@H](NC(=O)c4ccccc4)c4ccccc4)C(C)=C1C3(C)C)[C@]1(OC(C)=O)CO[C@@H]1C[C@@H]2O` [Paclitaxel] was tested. Which “Hemmung der Topoisomerase II (Inhibierung der Decatenation von kDNA)” value [1] did it give?
The value was “keine inhibitorischen Effekte”.

And the “Hemmung der Topoisomerase II (Inhibierung der pRYG Relaxation)” value [2]?
The value was “keine inhibitorischen Effekte”.

`Cc1ccc2cc(NC(=O)C(=O)c3cn(Cc4ccc(Cl)cc4)c4ccccc34)ccc2n1` [Verbindung 9, 2-[1-(4-Chlor-benzyl)-1H-indol-3-yl]-N-(2-methyl-chinolin-6-yl)-2-oxo-acetamid] was tested. Which “Hemmwirkung auf die Polymerisation von Tubulin” value [3] did it give?
Its value is “sehr potente Hemmwirkung”.

`O=C(Nc1ccc2ncccc2c1)C(=O)c1cn(Cc2ccc(Cl)cc2)c2ccccc12` [Verbindung 10, 2-[1-(4-Chlor-benzyl)-1H-indol-3-yl]-2-oxo-N-chinolin-6-yl-acetamid] was tested. Which “Optimale T/C % (Tag)” value ([4]; 55 mg/kg p.o., day 14) did it give?
The value was 0.8% (14).

And the Todesfällen ([4]; 55 mg/kg p.o.)?
The Todesfällen was 2/6 Mäuse tot.

What about the “Optimale T/C % (Tag)” value ([4]; 70 mg/kg p.o., day 7) of the same compound?
The value was 2.3% (7).

And the Todesfällen ([4]; 70 mg/kg p.o.)?
Its Todesfällen is 5/6 Mäuse tot.

And the “Optimale T/C % (Tag)” value ([5]; day 10)?
Its value is 6.5% (10).

And the Todesfällen [5]?
The Todesfällen was 2/6.

And the Todesfällen ([5]; listed as 10 (V))?
The Todesfällen was 2/6 Mäuse tot.

Which “Hemmung der Tubulin-Polymerisation, EC50” value ([3]; tubulin with 30% associated proteins (MAPs), mean of two independent experiments) does the source give for `O=C(Nc1ccc2ncccc2c1)C(=S)c1cn(Cc2ccc(Cl)cc2)c2ccccc12` [Verbindung 11, 2-[1-(4-Chlor-benzyl)-1H-indol-3-yl]-N-chinolin-6-yl-2-thioxo-acetamid] here?
The value was 0.97 µg/mL.

And the “Hemmwirkung auf die Polymerisation von Tubulin” value [3]?
Its value is “sehr potente Hemmwirkung”.

`O=C(Nc1cccc2cccnc12)C(=O)c1cn(Cc2ccc(Cl)cc2)c2ccccc12` [Verbindung 12, 2-[1-(4-Chlor-benzyl)-1H-indol-3-yl]-2-oxo-N-chinolin-8-yl-acetamid] was tested. Which EC50 [6] did it give?
Its EC50 is over 3.16 µg/mL.

And the EC50 [7]?
The EC50 was over 3.16 µg/mL.

What about the EC50 [8] of the same compound?
Its EC50 is over 3.16 µg/mL.

And the EC50 [9]?
The EC50 was over 3.16 µg/mL.

What about the EC50 [3, 11] of the same compound?
The EC50 was over 10 µM.

And the “Hemmwirkung auf die Polymerisation von Tubulin” value [3]?
The value was “keinen Effekt”.

For `O=C(Nc1cccc2cnccc12)C(=O)c1cn(Cc2ccc(Cl)cc2)c2ccccc12` [Verbindung 13, 2-[1-(4-Chlor-benzyl)-1H-indol-3-yl]-N-isochinolin-5-yl-2-oxo-acetamid], which EC50 [6] is on record?
Its EC50 is over 3.16 µg/mL.

And the EC50 [7]?
Its EC50 is over 3.16 µg/mL.

What about the EC50 [8] of the same compound?
Its EC50 is over 3.16 µg/mL.

What about the EC50 [9] of the same compound?
Its EC50 is over 3.16 µg/mL.

What about the EC50 [3, 11] of the same compound?
Its EC50 is over 10 µM.

And the “Hemmwirkung auf die Polymerisation von Tubulin” value [3]?
The value was “keinen Effekt”.

`O=C(Nc1ccncc1)C(=O)c1cn(Cc2ccc(Cl)cc2)c2ccccc12` [Verbindung 14, 2-[1-(4-Chlor-benzyl)-1H-indol-3-yl]-2-oxo-N-pyridin-4-yl-acetamid] was tested. Which EC50 [10] did it give?
The EC50 was over 1000 nM.

And the “Optimale T/C % (Tag)” value ([4]; 16 mg/kg p.o., day 18)?
Its value is 0.7% (18).

What about the Todesfällen ([4]; 16 mg/kg p.o.) of the same compound?
Its Todesfällen is 3/5 Mäuse tot.

And the “Optimale T/C % (Tag)” value ([4]; 32 mg/kg p.o., day 7)?
The value was 14.6% (7).

And the Todesfällen ([4]; 32 mg/kg p.o.)?
Its Todesfällen is 3/5 Mäuse tot.

What does the source list for `Cc1ccc2cccc(NC(=O)C(=O)c3cn(Cc4ccc(F)cc4)c4ccccc34)c2n1` [Verbindung 15, 2-[1-(4-Fluor-benzyl)-1H-indol-3-yl]-N-(2-methyl-chinolin-8-yl)-2-oxo-acetamid]?
EC50 [6]: > 3.16 µg/mL; EC50 [8]: > 3.16 µg/mL; EC50 [3, 11]: > 10 µM; Hemmwirkung auf die Polymerisation von Tubulin [3]: keinen Effekt

`CC[C@]1(O)C[C@H]2CN(CCc3c([nH]c4ccccc34)[C@@](C(=O)OC)(c3cc4c(cc3OC)N(C=O)[C@H]3[C@@](O)(C(=O)OC)[C@H](OC(C)=O)[C@]5(CC)C=CCN6CC[C@]43[C@@H]65)C2)C1` [Vincristine] was tested. Which “Hemmung der Topoisomerase II (Inhibierung der Decatenation von kDNA)” value [1] did it give?
Its value is “keine inhibitorischen Effekte”.

And the “Hemmung der Topoisomerase II (Inhibierung der pRYG Relaxation)” value [2]?
The value was “keine inhibitorischen Effekte”.
